Patent US20230233584A1, “EXTENDED RELEASE 5-HT RECEPTOR AGONISTS FOR NEUROLOGICAL CONDITIONS” (Diamond Therapeutics Inc., priority 2020, published 2023)

Assays:
[1] = test system: Long Evans rats; experiment: 5-choice serial reaction time task (5CSRTT), acute dosing, standard conditions; format: in vivo; conditions: for pro-cognitive effect measured as % hit: p=0.05
Experimental: General: Experiments were conducted to test psilocybin doses in the range of 0.01-0.2 mg/kg psilocybin administered S.C. across progressive ratio (PR) and 5-choice serial reaction time task (5CSRTT) to examine the effect of psilocybin on endophenotypes of motivation and attention. In each study, a population of out-bred Long Evans rats was first tested as a group for response to the PR and 5CSRTT. Each group was then divided into subgroups by tertiles according to performance, and then exposed to various dose levels immediately prior to re-testing at various psilocybin dose levels.
The 5CSRTT involves evaluating test subject response to a brief visual stimulus (Higgins, Guy & Silenieks, Leonardo. (2017). Rodent Test of Attention and Impulsivity: The 5-Choice Serial Reaction Time Task: The 5-Choice Serial Reaction Time Task. 10.1002/cpph.27). Animals are trained to make a nose-poke response to a stimulus location in order to collect a food reward. The task allows the experimenter to measure animal performance in multiple domains including: • Attention • Impulsivity • Perseveration • Speed of response
A strength of the test is its flexible configuration to challenge test subjects: • Standard test conditions (0.75 s stimulus duration (SD), 5 s inter-trial interval (ITI), 100 trials) • Multiple short stimulus duration (mSD) (0.03-1 s SD) • Fixed long ITI (5 s vs. 10 s ITI) • Multiple ultrashort ITI (2-5 s ITI) • Extended 250 trials
Asterisk (*) indicates statistical significance vs. vehicle. (FIG. 3A).
When this population is segmented into tertiles according to performance based on accuracy (% correct, calculated as # correct/(# correct+# incorrect)*100), the lowest performing tertile (N=8) are considered to be low attentive and potentially representative of a low attentive endophenotype of depression (FIG. 6A). Low attentive rats also score poorly on % hit (FIG. 6B) and have a slower response speed (FIG. 6D). […] Asterisk (*) indicates statistical significance vs. vehicle.

[2] = test system: rats; experiment: Locomotor activity, distance travelled; format: in vivo
Description: Stimulant drugs cause far larger increases in distance travelled with escalating doses, reflective of a direct motor stimulant property not seen with psilocybin.

[3] = Psilocybin and psilocin plasma pharmacokinetics after s.c. psilocybin; format: in vivo, rats; conditions: rats; for AUC0-tlast, Mean / Cmax, Mean / Cmax/Dose, Mean / tmax, Mean / AUC0-inf, Mean / AUC0-inf/Dose, Mean / Apparent t1/2, Mean / MRT0-inf, Mean: psilocybin in plasma
Experimental: Psilocybin doses of 0.05, 0.1, 1, 10 mg/kg were used to evaluate psilocybin and psilocin PK in rats. For the doses of psilocybin that positively effect behaviors in the low performers in the PR and 5CSRTT, e.g., 0.05-0.1 mg/kg, the corresponding Cm. of psilocin was ˜7±2 ng/ml at 30 minutes for 0.05 mg/kg, and at a dose of 0.1 mg/kg, the Cm. of psilocin was determined to be ˜12±3 ng/ml at 30 minutes (FIG. 5).
Details of the plasma concentration studies are shown in Tables 1-8 (psilocybin) and 9-16 (psilocin). Values in italics are below the lower level of quantitation (BLQ, <1 ng/mL) but were included in calculations. Values in bold and underlined are considered to be outliers and were omitted from calculations. Measured dosing solution concentrations were 0.0460, 0.0967, 0.948 and 9.65 mg/mL for 0.05, 0.1, 1 and 10 […].

[4] = Minipump infusion of psilocybin over 12 days: plasma/blood exposure; format: in vivo, rats; conditions: psilocybin minipump, days 4-12, rats
Experimental: A dose of psilocybin, which is free from perceptual and behavioral side effects, was dosed in rats (N=24) continuously over a period of 12 days using an Alzet minipump implanted in rats of approximately 380-390 g body weight. The pump was primed to deliver psilocybin at 5 mg/kg/day pump concentration. The target plasma concentration was 10 ng/ml psilocin with actual plasma concentration 9.3+1.3 ng/ml over the 12 day study period.
Blood was collected from rats on days 4, 8 and 12 to measure levels of psilocybin and psilocin in Group B rats. Blood was collected via saphenous bleed at a standard timepoint which will not interfere with 5-choice testing. Psilocin blood levels were in the range of 8-10 ng/ml over days 4-12, while psilocybin blood levels were in the range of 2-5 ng/ml over days 4-12 (FIG. 7A), corresponding to 10 ng/mL psilocin. […] The present observations recorded for psilocybin/psilocin are occurring at exposure levels of psilocin ˜10 ng/ml (e.g., FIG. 5), likely resulting in a low level of CNS 5-HT2A receptor occupancy, and which is insufficient to elicit cardinal signs of 5-HT2A receptor activation such as WDS/BMC in rats (e.g., FIG. 1B).

[5] = 0.05 mg/kg S.C., 24 rats, standard conditions
[6] = 0.05-0.1 mg/kg S.C., standard conditions

CN(C)CCc1c[nH]c2cccc(OP(=O)(O)O)c12 [psilocybin, 4-phosphoryloxy-N,N-dimethyltryptamine]
procognitive effect measured as % correct [1, 5]: slight non-significant increase
pro-cognitive effect measured as % hit [1, 5]: increased
pro-cognitive effect measured as % hit ([1]; 0.05 mg/kg and 0.1 mg/kg S.C., low performers): increased
response speed ([1]; 0.05 mg/kg, low attentive cohort compared with vehicle): increased response speed
performance: response speed, number of trials completed [1, 6]: no effect on response speed, or number of trials completed
premature or perseverative responses [1, 6]: no effect on premature or perseverative responses
pro-cognitive effect measured as % correct ([1]; 0.05 and 0.1 mg/kg S.C., low performers): slight non-significant increase
effect on accuracy (% correct and % hit) ([1]; 0.05 and 0.1 mg/kg, low attentive subgroup (N=8) compared with vehicle): strongly evident
detrimental effects on performance (motivation, motor control, attention, response speed) ([1]; low doses used in PR and 5CSRTT studies (0.025-0.2 mg/kg S.C.)): no detrimental effects
motor activity distance travelled ([2]; high doses): slightly decreased distanced travelled
motor activity distance travelled ([2]; low doses): increase in motor activity distance travelled
Plasma concentration of psilocybin, Mean ([3]; psilocybin 0.05 mg/kg s.c., 0.25 h): 6.20 ng/mL
Plasma concentration of psilocybin, Mean ([3]; psilocybin 0.05 mg/kg s.c., 0.5 h): 12.5 ng/mL
Plasma concentration of psilocybin, Mean ([3]; psilocybin 0.05 mg/kg s.c., 0.75 h): 1.07 ng/mL
Plasma concentration of psilocybin, Mean ([3]; psilocybin 0.05 mg/kg s.c., 1 h): 19.2 ng/mL
Plasma concentration of psilocybin, Mean ([3]; psilocybin 0.05 mg/kg s.c., 2 h): 0.594 ng/mL
Plasma concentration of psilocybin, Mean ([3]; psilocybin 0.05 mg/kg s.c., 4 h): 1.95 ng/mL
Plasma concentration of psilocybin, Mean ([3]; psilocybin 0.05 mg/kg s.c., 6 h): 2.12 ng/mL
Plasma concentration of psilocybin, Mean ([3]; psilocybin 0.1 mg/kg s.c., 0.25 h): 21.7 ng/mL
Plasma concentration of psilocybin, Mean ([3]; psilocybin 0.1 mg/kg s.c., 0.5 h): 28.9 ng/mL
Plasma concentration of psilocybin, Mean ([3]; psilocybin 0.1 mg/kg s.c., 0.75 h): 2.96 ng/mL
Plasma concentration of psilocybin, Mean ([3]; psilocybin 0.1 mg/kg s.c., 1 h): 2.19 ng/mL
Plasma concentration of psilocybin, Mean ([3]; psilocybin 0.1 mg/kg s.c., 2 h): 1.76 ng/mL
Plasma concentration of psilocybin, Mean ([3]; psilocybin 0.1 mg/kg s.c., 4 h): 2.55 ng/mL
Plasma concentration of psilocybin, Mean ([3]; psilocybin 0.1 mg/kg s.c., 6 h): 0.921 ng/mL
Plasma concentration of psilocybin, Mean ([3]; psilocybin 1.0 mg/kg s.c., 0.25 h): 75.2 ng/mL
Plasma concentration of psilocybin, Mean ([3]; psilocybin 1.0 mg/kg s.c., 0.5 h): 47.3 ng/mL
Plasma concentration of psilocybin, Mean ([3]; psilocybin 1.0 mg/kg s.c., 0.75 h): 35.8 ng/mL
Plasma concentration of psilocybin, Mean ([3]; psilocybin 1.0 mg/kg s.c., 1 h): 35.1 ng/mL
Plasma concentration of psilocybin, Mean ([3]; psilocybin 1.0 mg/kg s.c., 2 h): 2.19 ng/mL
Plasma concentration of psilocybin, Mean ([3]; psilocybin 1.0 mg/kg s.c., 4 h): 1.12 ng/mL
Plasma concentration of psilocybin, Mean ([3]; psilocybin 1.0 mg/kg s.c., 6 h): 0.929 ng/mL
Plasma concentration of psilocybin, Mean ([3]; psilocybin 10 mg/kg s.c., 0.25 h): 1030 ng/mL
Plasma concentration of psilocybin, Mean ([3]; psilocybin 10 mg/kg s.c., 0.5 h): 1544 ng/mL
Plasma concentration of psilocybin, Mean ([3]; psilocybin 10 mg/kg s.c., 0.75 h): 344 ng/mL
Plasma concentration of psilocybin, Mean ([3]; psilocybin 10 mg/kg s.c., 1 h): 269 ng/mL
Plasma concentration of psilocybin, Mean ([3]; psilocybin 10 mg/kg s.c., 2 h): 101 ng/mL
Plasma concentration of psilocybin, Mean ([3]; psilocybin 10 mg/kg s.c., 4 h): 1.80 ng/mL
Plasma concentration of psilocybin, Mean ([3]; psilocybin 10 mg/kg s.c., 6 h): 1.32 ng/mL
AUC0-tlast, Mean ([3]; psilocybin 0.05 mg/kg s.c.): 10.7 ng·h/mL
Cmax, Mean ([3]; psilocybin 0.05 mg/kg s.c.): 18.9 ng/mL
Cmax/Dose, Mean ([3]; psilocybin 0.05 mg/kg s.c.): 377 kg·ng/mL/mg
tmax, Mean ([3]; psilocybin 0.05 mg/kg s.c.): 36 min
AUC0-tlast, Mean ([3]; psilocybin 0.1 mg/kg s.c.): 11.4 ng·h/mL
Cmax, Mean ([3]; psilocybin 0.1 mg/kg s.c.): 31.4 ng/mL
Cmax/Dose, Mean ([3]; psilocybin 0.1 mg/kg s.c.): 314 kg·ng/mL/mg
tmax, Mean ([3]; psilocybin 0.1 mg/kg s.c.): 19.3 min
AUC0-inf, Mean ([3]; psilocybin 1.0 mg/kg s.c.): 47.9 ng·h/mL
AUC0-inf/Dose, Mean ([3]; psilocybin 1.0 mg/kg s.c.): 47.9 kg·ng·h/mL/mg
AUC0-tlast, Mean ([3]; psilocybin 1.0 mg/kg s.c.): 53.1 ng·h/mL
Apparent t1/2, Mean ([3]; psilocybin 1.0 mg/kg s.c.): 26.7 min
Cmax, Mean ([3]; psilocybin 1.0 mg/kg s.c.): 78.3 ng/mL
Cmax/Dose, Mean ([3]; psilocybin 1.0 mg/kg s.c.): 78.3 kg·ng/mL/mg
MRT0-inf, Mean ([3]; psilocybin 1.0 mg/kg s.c.): 44.8 min
tmax, Mean ([3]; psilocybin 1.0 mg/kg s.c.): 21.4 min
AUC0-inf, Mean ([3]; psilocybin 10 mg/kg s.c.): 2156 ng·h/mL
AUC0-inf/Dose, Mean ([3]; psilocybin 10 mg/kg s.c.): 216 kg·ng·h/mL/mg
AUC0-tlast, Mean ([3]; psilocybin 10 mg/kg s.c.): 1707 ng·h/mL
Apparent t1/2, Mean ([3]; psilocybin 10 mg/kg s.c.): 34 min
Cmax, Mean ([3]; psilocybin 10 mg/kg s.c.): 3595 ng/mL
Cmax/Dose, Mean ([3]; psilocybin 10 mg/kg s.c.): 359 kg·ng/mL/mg
MRT0-inf, Mean ([3]; psilocybin 10 mg/kg s.c.): 43 min
tmax, Mean ([3]; psilocybin 10 mg/kg s.c.): 30 min
psilocybin blood levels [4]: 2 to 5 ng/mL
